Where a name gives a salt, the structure may show the parent alone. Read-outs that look alike come from different tables or passages of the source.

The text below walks through data of US20230126310A1 (priority 2020, published 2023).

This test concerns SARS-CoV-2. Description: microbe, parasite or virus in culture. The note with it: Severe acute respiratory syndrome coronavirus 2, Caco-2, 48 h; for inhibition at 10 µM: read-out: % Inh. (% Inhibition of SARS-CoV-2).

For the compound `NCCC(Oc1ccc(C(F)(F)F)cc1)c1ccccc1` (stereo not drawn) [norfluoxetine], the inhibition at 10 µM was determined as 95%.

Take `N#C/C(=C1/SCC(c2ccccc2Cl)S1)n1ccnc1` (stereo not drawn) [Lanoconazole]: the inhibition at 10 µM came to 70.7%.

On to `CN1C[C@H](CNC(=O)OCc2ccccc2)C[C@@H]2c3cccc4c3c(cn4C)C[C@H]21` [METERGOLINE], for which the inhibition at 10 µM was 54.6%.

Regarding `CC[C@@]1(O)C(=O)OCc2c1cc1n(c2=O)Cc2cc3ccccc3nc2-1` [camptothecin], the inhibition at 10 µM stood at 81.8%.

For the compound `C[C@@]1(O)[C@H](O)[C@@H](CO)O[C@H]1n1ccc(N)nc1=O` [NM107, 2′-C-methylcytidine, 2′-C-methylcytidine], the inhibition at 10 µM was found to be 60.1%.

Take `FC(F)(F)c1ccc(/C=C/c2nc(COc3ccc(CCCCn4ccnn4)cc3)co2)cc1` [mubritinib]: the inhibition at 10 µM is 82.2%.

With `NC(=O)N/N=C/c1ccc([N+](=O)[O-])o1` [NITROFURAZONE], the inhibition at 10 µM came out at 87.3%.

With `C#Cc1cccc(Nc2ncnc3cc4c(cc23)OCCOCCOCCO4)c1` [Icotinib], the inhibition at 10 µM stood at 68.1%.

`CC(C)(O)CC(=O)NCCn1ccc2ncnc(Nc3ccc(Oc4cccc(C(F)(F)F)c4)c(Cl)c3)c21` [TAK-285]: the inhibition at 10 µM worked out at 73%.

Consider `c1ccc(C(O[C@@H]2CCCN(CCc3ccc4c(c3)OCO4)C2)c2ccccc2)cc1` [zamifenacin], for which the inhibition at 10 µM was 58.3%.

As for `COc1ccc(CCNCC(O)COc2cccc(C)c2)cc1OC` (stereo not drawn) [Bevantolol HCl], the inhibition at 10 µM turned out to be 77.1%.

For `CCCC1O[C@@H]2C[C@H]3[C@@H]4CCC5=CC(=O)C=C[C@]5(C)[C@H]4[C@@H](O)C[C@]3(C)[C@]2(C(=O)CO)O1` (stereo partly drawn) [budesonide], the inhibition at 10 µM came to 74.4%.

As to `COc1ccc(Cc2nccc3cc(OC)c(OC)cc23)cc1OC` [PAPAVERINE HYDROCHLORIDE], the IC50 is 0.95 µM. Moreover, the IC50 (read-out: pIC50 (converted)) was 0.955 µM.

`CNC(=O)c1cc(Oc2ccc(NC(=O)Nc3cc(C(C)(C)C)nn3-c3ccc4ncccc4c3)c(F)c2)ccn1` [DCC-2036 (Rebastinib), Rebastinib]: the inhibition at 10 µM was 70%.

As for `COc1cc2c(Nc3ccc(Br)cc3F)ncnc2cc1OCC1CCN(C)CC1` [Vandetanib (ZD6474), Vandetanib], the inhibition at 10 µM was determined as 51.2%.

For `Clc1ccc(CCC(Cn2ccnc2)Sc2c(Cl)cccc2Cl)cc1` (stereo not drawn) [BUTOCONAZOLE], the inhibition at 10 µM is 70.6%.

As to `CCN(CC)CCNc1ccc(CO)c2sc3ccccc3c(=O)c12` [Hycanthone], the inhibition at 10 µM is 60.2%.

On to `C1CCC(C(CC2CCCCN2)C2CCCCC2)CC1` (stereo not drawn) [PERHEXILINE MALEATE], for which the inhibition at 10 µM came out at 55.4%.

Turning to `Cc1nc(Nc2ccc(F)cc2)nc(N2CCc3ccccc3C2C)c1C` (stereo not drawn) [Revaprazan Hydrochloride], the inhibition at 10 µM was 90.9%.

As for `CC(=O)OCC(=O)[C@@]1(O)CC[C@H]2[C@@H]3CCC4=CC(=O)C=C[C@]4(C)[C@@]3(F)[C@@H](O)C[C@@]21C` [isoflupredone-acetate], the inhibition at 10 µM is 80.6%.

In the case of `COC(=O)C1=C(C)NC(C)=C(C(=O)OCCCN2CCC(c3ccccc3)(c3ccccc3)CC2)[C@@H]1c1cccc([N+](=O)[O-])c1` [dexniguldipine], the IC50 was found to be 35.8 µM and the inhibition at 10 µM worked out at 97.6%. In addition, for the setting “read-out: pIC50 (converted)”, the IC50 was 35.5 µM.

Take `FC(F)c1nc2ccccc2n1-c1nc(N2CCOCC2)nc(N2CCOCC2)n1` [ZSTK474]: the inhibition at 10 µM is 90.9%.

On to `COc1ccc(C(Cl)=C(c2ccc(OC)cc2)c2ccc(OC)cc2)cc1` [chlorotrianisene], for which the inhibition at 10 µM is 55.3%.

As for `COc1cc2ncnc(Nc3ccc(F)c(Cl)c3)c2cc1NC(=O)/C=C/CN1CCCCC1` [Dacomitinib (PF299804, PF-00299804), Dacomitinib], the inhibition at 10 µM is 85.5%.

With `Cc1c(O)cccc1C(=O)N[C@@H](CSc1ccccc1)[C@H](O)CN1C[C@H]2CCCC[C@H]2C[C@H]1C(=O)NC(C)(C)C` [Nelfinavir Mesylate], the IC50 amounted to 2.65 µM and the inhibition at 10 µM stood at 88.6%. For the setting “read-out: pIC50 (converted)”, the IC50 was 2.63 µM.

For the compound `COc1cc(C)c2c(Oc3cccc(C(F)(F)F)c3)c(OC)cc(NC(C)CCCN)c2n1` (stereo not drawn) [tafenoquine], the inhibition at 10 µM is 90%.

As to `CCN(CC)CCO[C@H]1CC[C@@]2(C)C(=CC[C@@H]3[C@@H]2CC[C@]2(C)C(=O)CC[C@@H]32)C1` [U-18666A], the inhibition at 10 µM amounted to 77.4%.

As for `CN(C)C(=O)C(CCN1CCC(O)(c2ccc(Cl)cc2)CC1)(c1ccccc1)c1ccccc1` [LOPERAMIDE HYDROCHLORIDE], the inhibition at 10 µM was 58.9%.

Regarding `O=C1NCCN1CCN1CCC(c2cn(-c3ccc(F)cc3)c3ccc(Cl)cc23)CC1` [sertindole], the inhibition at 10 µM stood at 90.3%.

For the compound `C[C@]12CC[C@H](O)CC1=CC[C@@H]1[C@@H]2CC[C@]2(C)C(n3cnc4ccccc43)=CC[C@@H]12` [Galeterone (TOK-001), Galeterone], the inhibition at 10 µM worked out at 69%.

For `C[C@]1(O)C[C@@H](c2nc(-c3ccc4ccc(-c5ccccc5)nc4c3)c3c(N)nccn32)C1` [OSI-906 (Linsitinib), Linsitinib], the IC50 came out at 24.9 µM and the inhibition at 10 µM turned out to be 110%. Further, where the note is “read-out: pIC50 (converted)”, the IC50 was 25.1 µM.

Turning to `CCNC(=O)c1noc(-c2cc(C(C)C)c(O)cc2O)c1-c1ccc(CN2CCOCC2)cc1` [Luminespib], the inhibition at 10 µM worked out at 104%.

Regarding `COc1ccc(N(C)c2nc(C)nc3ccccc23)cc1` [verubulin], the inhibition at 10 µM was determined as 50.9%.

As for `CC(=O)Oc1c(C)cc(OCC(O)CNC(C)C)c(C)c1C` (stereo not drawn) [metipranolol], the inhibition at 10 µM worked out at 54.6%.

Take `CCOC(=O)C1=C(C)NC(C)=C(C(=O)OC)C1c1cccc(Cl)c1Cl` (stereo not drawn) [FELODIPINE]: the inhibition at 10 µM is 51.2%.

For the compound `COc1ccc(CCc2nc3cc(-c4c(C)noc4C)ccc3n2C[C@H](C)N2CCOCC2)cc1Cl` [SGC-CBP30], the inhibition at 10 µM is 59.2%.

Take `CCCCC(CC)CNC(=N)NC(=N)NCCCCCCNC(=N)NC(=N)NCC(CC)CCCC` (stereo not drawn) [Alexidine dihydrochloride]: the inhibition at 10 µM was 76.3%.

With `O=C(c1ccc(F)c(F)c1Nc1ccc(I)cc1F)N1CC(O)([C@@H]2CCCCN2)C1` [Cobimetinib], the inhibition at 10 µM was 61.6%.

On to `NCCC(=O)N[C@@H](Cc1cnc[nH]1)C(=O)O` [Carnosine], for which the inhibition at 10 µM came out at 94.3%.

Turning to `Cc1[nH]cnc1-c1ccc(Cl)cc1` [lofemizole], the inhibition at 10 µM worked out at 56.3%.

As for `Cc1cc(C(C#N)c2ccc(Cl)cc2)c(Cl)cc1NC(=O)c1cc(I)cc(I)c1O` (stereo not drawn) [CLOSANTEL], the inhibition at 10 µM turned out to be 80%.

Regarding `[H]/N=C(\N/C(=N/[H])NCCCCCCNC(=N)NC(=N)Nc1ccc(Cl)cc1)Nc1ccc(Cl)cc1` [CHLORHEXIDINE DIHYDROCHLORIDE], the inhibition at 10 µM came to 86.4%.

Take `CCNC1=Nc2ccc(Cl)cc2C(C)(c2ccccc2)O1` (stereo not drawn) [Etifoxine (hydrochloride)]: the IC50 came to 9.29 µM. Where the note is “read-out: pIC50 (converted)”, the IC50 was 9.33 µM.

For the compound `Cc1c(CN2CCN(C(=O)[C@H](C)O)CC2)sc2c(N3CCOCC3)nc(-c3cnc(N)nc3)nc12` [Apitolisib (GDC-0980, RG7422), Apitolisib], the inhibition at 10 µM came out at 102%.

Regarding `CC(C)(C)NC[C@H](O)COc1cccc2c1CCCC2=O` [levobunolol], the inhibition at 10 µM is 64.5%.

On to `CC(C)Oc1ccc2c(=O)c(-c3ccccc3)coc2c1` [IPRIFLAVONE], for which the inhibition at 10 µM was 51.4%.
